Results: patent US8093028B2, “Engineered glycosyltransferases with expanded substrate specificity” (Wisconsin Alumni Research Foundation, priority 2007, dated 2012)
Read-outs that look alike come from different tables or passages of the source.

What was measured:
[1] = test system: ASP OleD (A242V/S132F/P67T); assay: Kinetic parameters with model acceptors phenol, thiophenol, aniline; assay type: biochemical, Streptomyces antibioticus; details: UDP-Glc donor
Description: To confirm O—, S- and N-glucoside formation, iterative glycosylation, and determine anomeric stereoselectivity, a select set of OleD-catalyzed reactions with simple aromatic model acceptors phenol (FIG. 17: 8), thiophenol (FIG. 17: 6), and aniline (FIG. 17: 34) were studied in depth.

[2] = test system: CC(C)=CCc1cc(C(=O)Nc2c(O)c3ccc(O)c(C)c3oc2=O)ccc1O; assay: purified protein, by the assay type; details: other: named substrate varied, other substrate fixed at 5 mM; pH 8.0
OleD P67T/S132F/A242V [3] = molecular target: T1, OleD P67T/S132F/A242V (Streptomyces antibioticus, UniProt Q53685, A242V/P67T/S132F); assay type: biochemical; details: for Conversion Rate (%), P67T/S132F/A242V: Table 2, acceptor 4 at 50 μM, NDP-sugar ~500 μM, 25° C., 3 h; for Conversion rates (%), P67T/S132F/A242V: Table 3, 4-Me-umb (4) as acceptor, end point assay
T1 construct: made in house; host or cells: E. coli (site-directed mutant of pET28/OleD)
Protocol: (§1) Reactions were carried out as described above with the following exceptions. The total volume was 50 μl and the acceptor FIG. 1: 4 was at 50 μM and the NDP-sugar at ˜500 μM. The NDP-sugars were used directly from RmlA-catalyzed reactions. […] Reactions were incubated at 25° C. for 3 h.
(§2) The total volume was 50 μl and the acceptor FIG. 1: 4 or FIG. 1: 1 was at 50 μM and the NDP-sugar at ˜500 μM. The NDP-sugars were used directly from RmlA-catalyzed reactions. […] Reactions were incubated at 25° C. for 3 h.
(§3) For activity toward FIG. 1: 4, aliquots (25 μl) were quenched with 25 μl of an 8:1 mixture of ice-cold MeOH/HCl, and centrifuged at 14,000 rpm for 10 min. […] HPLC peak areas were integrated, and the product concentration calculated as a percent of the total peak area. All products were characterized by LC-MS. Mass spectra were obtained using electrospray ionization on an Agilent 1100 HPLC-MSD SL quadrapole mass spectrometer connected to a UV/Vis diode array detector.

WT OleD = molecular target: T2, WT OleD (Streptomyces antibioticus, UniProt Q53685, P55A/R82V/R83E/T84P); assay type: biochemical; details: for Conversion Rate (%), WT: Table 2, acceptor 4 at 50 μM, NDP-sugar ~500 μM, 25° C., 3 h; for Conversion rates (%), WT: Table 3, 4-Me-umb (4) as acceptor, end point assay
T2 construct: made in house; host or cells: E. coli BL21(DE3)pLysS, plasmid pET28/OleD
Protocol: as §1, §2, §3

OleD A242V = molecular target: T3, OleD A242V (Streptomyces antibioticus, UniProt Q53685, A242V/P55A/R82V/R83E/T84P); assay type: biochemical; details: Table 3, 4-Me-umb (4) as acceptor, end point assay
T3 construct: made in house; host or cells: E. coli BL21(DE3)pLysS (error-prone PCR clone in pET28a)
Protocol: as §1, §2, §3

OleD P67T = molecular target: T4, OleD P67T (Streptomyces antibioticus, UniProt Q53685, P55A/P67T/R82V/R83E/T84P); assay type: biochemical; details: Table 3, 4-Me-umb (4) as acceptor, end point assay
T4 construct: made in house; host or cells: E. coli (site-directed mutant of pET28/OleD)
Protocol: as §1, §2, §3

OleD S132F = molecular target: T5, OleD S132F (Streptomyces antibioticus, UniProt Q53685, P55A/R82V/R83E/S132F/T84P); assay type: biochemical; details: Table 3, 4-Me-umb (4) as acceptor, end point assay
T5 construct: made in house; host or cells: E. coli (site-directed mutant of pET28/OleD)
Protocol: as §1, §2, §3

OleD P67T/S132F/A242V [4] = molecular target: T1, OleD P67T/S132F/A242V; assay type: biochemical; details: novobiocic acid (FIG. 9: 1) as acceptor
Protocol: Biotechnol. […] Reactions were incubated at 25° C. for 3 h. […] Supernatants were analyzed by analytical reverse-phase HPLC as described above. HPLC peak areas were integrated, and the product concentration calculated as a percent of the total peak area. All products were characterized by LC-MS.

Molecule | catalytic efficiency (kcat/Km) improvement of ASP versus WT OleD [1] [fold] | Conversion rates (%), A242V (OleD A242V) [%] | Conversion rates (%), P67T (OleD P67T) [%] | Conversion rates (%), P67T/S132F/A242V (OleD P67T/S132F/A242V [3]) [%] | Conversion rates (%), S132F (OleD S132F) [%] | Conversion rates (%), WT (WT OleD) [%] | also measured
Oc1ccccc1 [phenol (FIG. 17; 8), phenol] | 25 |  |  |  |  |  | 
Nc1ccccc1 [aniline (FIG. 17: 34), aniline] | 5 |  |  |  |  |  | 
OleD P67T/I112K/A242V (Streptomyces antibioticus; A242V/I112K/P67T) |  |  |  |  |  |  | Km [2]: 800 µM; kcat [2]: 0.0855 s⁻¹
UDP-6-thio-glucose [FIG. 3: 9] |  |  |  |  |  |  | Conversion Rate (%), P67T/S132F/A242V (OleD P67T/S132F/A242V [3]): 47%; Conversion Rate (%), WT (WT OleD; listed as 9): 1%
Sc1ccccc1 [thiophenol (FIG. 17: 6), thiophenol] | 4 |  |  |  |  |  | 
UDP-6-deoxy-glucose [UDP-6-deoxy-glc (8)] |  | 6 | 11 | 85 | 10 | 6 | Conversion rates (%), A242V (OleD A242V; listed as FIG. 3: 8): ≤ 12%; Conversion rates (%), P67T (OleD P67T; listed as FIG. 3: 8): ≤ 12%; Conversion Rate (%), P67T/S132F/A242V (OleD P67T/S132F/A242V [3]): 85%; Conversion rates (%), S132F (OleD S132F; listed as FIG. 3: 8): ≤ 12%; Conversion Rate (%), WT (WT OleD): 6%
[N-]=[N+]=NCC1OC(OP(=O)(O)OP(=O)(O)OC[C@H]2O[C@@H](n3ccc(=O)[nH]c3=O)[C@H](O)[C@@H]2O)C(O)C(O)C1O (stereo partly shown) [UDP-6-azido-glc (11), UDP-6-azido-glucose] |  | 2 | 2 | 41 | 1 | 0 | donor acceptance, P67T/S132F/A242V (OleD P67T/S132F/A242V [4]): albeit poorly
UDP-4-deoxy-glc [UDP-4-deoxy-glc (12)] |  | 0 | 0 | 22 | 0 | 0 | 
